Laboratory results as given in BindingDB's records for doi:10.1021/acs.jnatprod.6b00262 (Kindai University, 2016).

Assay: Antagonist activity at human EGFP-fused CCR3 expressed in mouse L1.2 cells assessed as inhibition of CCL11-induced chemotaxis measured after 1.5 hrs by PicoGreen dsDNA reagent-based assay

Row | EC50 | SMILES
1 | 1.6 µM | C/C=C/c1cc(OC)c2c(c1)[C@@H](C)[C@H](c1cc(OC)c(O)c(OC)c1)O2
2 | 1.4 µM | C=CCc1cc(OC)c(O[C@@H](C)[C@H](OC(C)=O)c2ccc(OC)c(OC)c2)c(OC)c1
3 | 1.5 µM | C=CCc1cc(OC)c(O[C@H](C)[C@@H](O)c2cc(OC)c(O)c(OC)c2)c(OC)c1
4 | 0.78 µM | COC(=O)[C@H](Cc1ccc([N+](=O)[O-])cc1)NC(=O)c1cccc2ccccc12 [(S)-2-[(Naphthalene-1-carbonyl)-amino]-3-(4-nitro-phenyl)-propionic acid methyl ester]
